# According to patent publication US9051279B2, “Substituted isoquinolinones and quinazolinones” (Novartis AG, priority 2009, dated 2015):
# Assay: Solubility and stability of crystalline sulphate salt form I compared to free base amorphous form
# Assay type: physicochemical
# Conditions: compared to the free base amorphous form
smiles,measurement,value
"COc1cc2c(cc1OC(C)C)[C@H](c1ccc(Cl)cc1)N(c1ccc(N(C)C[C@H]3CC[C@H](N4CCN(C)C(=O)C4)CC3)cc1)C(=O)C2.O=S(=O)(O)O [(S)-1-(4-Chloro-phenyl)-7-isopropoxy-6-methoxy-2-(4-{methyl-[4-(4-methyl-3-oxo-piperazin-1-yl)-trans-cyclohexylmethyl]-amino}-phenyl)-1,4-dihydro-2H-isoquinolin-3-one sulphate salt]",solubility,improvements
same,stability,improvements
